Results on seven molecules are retold here after patent publication US20150044244A1, “COMBINED FACILITATOR, ANTIGEN AND DNA VACCINE FOR PREVENTING AND TREATING AUTOIMMUNE DISEASES” (BEIJING ADVANCCINE BIOTECHNOLOGY CO. LTD., priority 2011, published 2015).

In one assay the test system is JAWS II cells. As to the kind of experiment: Endocytosis inhibitors and CD40low phenotype in JAWS II cells. The format is cell-based, mouse. As to conditions: for effect on CD40low phenotype: pretreatment before pOVA323+OVA323. The method, then: The JAWS II mouse DC line was purchased from the American Type Culture Collection (ATCC, Manassas, Va., USA) and maintained in complete growth medium containing minimum essential medium (MEM) alpha with ribonucleosides, deoxyribonucleosides, 4 mM L-glutamine, and 1 mM sodium pyruvate (Invitrogen Inc., Carlsbad, Calif., USA), and supplemented with 20% fetal bovine serum (ATCC) and 5 ng/ml murine recombinant GM-CSF (R&D Systems, Inc., Minneapolis, Minn., USA). The cells were incubated at 37° C. with 5% CO2 and treated with different antigens (10 μg/ml) such as pVAX, pOVA, OVA, pOVA323 and OVA323 for 24 h. For inhibitor treatment, JAWS II cells were pre-treated with filipin (10 μg/ml), MDC (50 μM) for 30 min at 37° C., respectively, or with amiloride (5 mM) for 10 min at 37° C., and washed with medium, then stimulated with antigens.
DCs take up exogenous antigens via various mechanisms including clathrin-mediated endocytosis, caveolae-mediated endocytosis, and macropinocytosis. To define which pathway(s) were involved in the co-uptake of DNA and protein immunogens, JAWS II cells were pretreated with MDC, a specific inhibitor of clathrin formation, or filipin, an inhibitor of caveolae trafficking, before being treated with pOVA323+OVA323. […] Another inhibitor, amiloride, an inhibitor for macropinocytosis, had no effect on CD40 expression (FIG. 37).

Another assay concerns the target T1, MHC-II (I-Ad) (Mus musculus, UniProt P01921+P04228).
T1 construct: purchased NIH Tetramer Core Facility
T1 sequence (P04228 24-218 limits assumed): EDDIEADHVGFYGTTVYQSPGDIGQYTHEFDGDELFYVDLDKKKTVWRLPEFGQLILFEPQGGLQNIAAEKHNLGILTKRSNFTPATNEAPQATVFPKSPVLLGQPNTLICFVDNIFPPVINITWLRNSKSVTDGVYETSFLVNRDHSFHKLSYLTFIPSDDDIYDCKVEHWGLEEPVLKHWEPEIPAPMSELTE
T1 sequence (P01921 28-226 limits assumed): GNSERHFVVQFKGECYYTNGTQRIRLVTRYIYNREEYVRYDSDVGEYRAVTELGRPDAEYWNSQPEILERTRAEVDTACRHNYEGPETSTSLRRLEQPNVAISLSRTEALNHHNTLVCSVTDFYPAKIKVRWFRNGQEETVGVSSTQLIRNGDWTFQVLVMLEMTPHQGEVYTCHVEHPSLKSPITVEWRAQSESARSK
Briefly: Tetramer staining-based epitope competition assay. The format is binding. The protocol: To further determine how antigenicity affects CD25^− iTreg induction, a set of mutated epitopes were generated from OVA323-339 (SEQ ID NO:187). Using a tetramer staining-based epitope competition assay, the affinity of each of the mutated epitopes for MHC-II was assessed. […] OVA323-339, MT1, and MT2 as probes for antigenicity studies were therefore selected.
With respect to the tetramer competition assay, PE-conjugated OVA323-339-loaded I-Ad tetramer (NIH Tetramer Core Facility) was competed with OVA323-339 or a mutant peptide by incubation of 2×10^5 DO11.10 T cells, the OVA323-339 tetramer, and a competing peptide together for 5 minutes. Five volumes of medium with 10% FCS were added to stop the competition. Cells were washed 3 times and immediately analyzed for PE-positive T cells by flow cytometer.

The test system of assay [1] is RAW264.7, JAWSII and DC2.4. Briefly: Cy5-pEGFP plasmid entry and GFP expression in APC cell lines with amiloride. The format is cell-based, mouse. To be noted: vs un-treated cells.
In assay [2] the test system is Cy5+ cells in draining lymph nodes. As to the kind of experiment: Cy5-pEGFP plasmid entry into draining lymph node cells after footpad injection. The assay is classed as in vivo, C57B/6 mice. As to conditions: 4 hrs after footpad injection. The protocol:
To explore if amiloride would overcome low transfection efficiency in vivo, Cy5-labeled pEFGP plasmid with or without amiloride was injected into hind footpads of C57B/6 mice. After 4 hrs, draining lymph nodes were collected and Cy5+ cells were analyzed by FACS analysis. The inguinal lymph nodes from the un-injected side were also collected as negative controls. […] The other ˜10% was B220+, a B cell marker. […].

Assay [3] concerns RAW264.7, DC2.4 and JAWSII. As to the kind of experiment: Maturation markers and innate cytokines after pcD-S2 with or without amiloride, cell lines. The format is cell-based, mouse. The protocol:
With respect to cell culture and inhibitor treatment, RAW264.7 and DC2.4 were cultured in DMEM/10% FCS, and JAWSII was cultured in DMEM/10% FCS with GMCSF (1000 U/ml, Peprotech, USA). Amiloride (Sigma-Aldrich, USA) was prepared as 10 mM solution and was diluted to 1 mM, 100 uM, 10 uM in DMEM medium before treatment. After culture medium was removed, cells were treated with amiloride, MβCD (5 mM, Sigma) or Fillipin (10 μg/ml, sigma) at 37° C. for 1 h. LPS (10 μg/ml, sigma) or 10 μg/ml DNA in DMEM was added at 37° C. for 0.5 h, after wash, culture medium was added and cells were cultured. Peritoneal macrophage was prepared from peritoneal cavity with 10 ml PBS wash, routinely with ˜50-70% F4/80 purity. Spleen dendritic cell was prepared from plate-adhesive cells and purified with Miltenyi DC purification kit (Miltenyi Biotec, Gladbach, Germany). Cells were treated and cultured 3 days for innate response.
Hepatitis B virus DNA vaccine (pcD-S2) encoding for HBsAg, which was conjugated with Cy5, was used to test whether amiloride-facilitated DNA entry into antigen presenting cells could positively affect innate immune responses.

For assay [4], the system named is CD8 T cells co-cultured with peritoneal macrophages or spleen dendritic cells. As to the kind of experiment: APC and CD8 T cell co-culture, S208-215 restimulation. The format is cell-based, mice. As to conditions: macrophages and DCs co-culture system. The protocol:
With respect to co-cultures, pcD-S2 (10 μg/ml) with or without 100 μM amiloride treat APCs, peritoneal macrophage or spleen dendrtic cell, were cultured for 2 days. At day3, purified CD8 T cell (R&D systems, USA) was added into culture with APC:T ratio of 1:5, 1:2, 1:1. At day 8, cells were collected and restimulated with S208-215 (10 μg/ml). PMA+Ionomycin was added as positive control for restimulation.
During the co-culture, HBsAg-derived peptide S208-215 (ILSPFLPL; H-2 Kb-restricted) was used to re-stimulate. Proportions of responsive T cells were analyzed.

A further assay relates to HBsAg. As to conditions: vs pcD-S2 alone; dose dependent manner.
Another assay deals with CD4+CD25− naive T cells. Briefly: Foxp3-GFP induction in naive T cells with anti-CD3/anti-CD28 and cytokines. The format is cell-based, Foxp3gfp mouse.
The subject of the next assay is splenic CD4+ T cells. Briefly: In vitro restimulation of T cells from FSA1 sensitized mice. As to conditions: than P66. The format is cell-based, C57BL/6 mice. The protocol: Splenic CD4^+ T cells from flea antigen immunized C57BL/6 mice were restimulated with P100 or P66 (5 ug/ml) in culture. T cell proliferation was determined by a 3-(4,5-Dimethylthiazol-2-yl)-2,5-diphenyltetrazolium bromide (MTT, a yellow tetrazole)-based assay. Concanavalin A (1 ug/ml) and BSA (1 ug/ml) were used as positive and negative controls, respectively. *, p<0.05. Shown is one of three independent experiments with similar results.
Flea allergic dermatitis is an allergic reaction to flea allergen that is mediated by CD4^+ T effector cells. To the above findings to a disease model, two antigenic epitopes from the flea allergen FSA1 were chosen, namely P66 (amino acids 66-80) (SEQ ID NO:189) and P100 (amino acids 100-114) (SEQ ID NO:188). […] This prediction was confirmed by sensitizing C57BL/6 mice (I-Ab^+) with full-length FSA1 followed by an in vitro restimulation assay using one of the epitopes.
With respect to T cell proliferation, MTT-based and CF SE-based T cell proliferation assays were performed as described before.

A further assay deals with flea allergic dermatitis. As to the kind of experiment: Prophylactic co-immunization in flea allergic dermatitis model. The assay is classed as in vivo, C57BL/6 mice. As to conditions: than P66. The text has this: To see whether the difference in antigenicity influences the induction of CD25^− iTreg cells by these two epitopes, C57BL/6 mice were prophylactically treated with co-immunization using the combination of DNA and protein vaccines targeting each epitope (designated as Co100 or Co66). Seven days after co-immunization, the animals were sensitized with flea saliva extracts, followed by a delayed-type hypersensitivity assay to determine to which extent the prophylactic co-immunization prevents the development of an allergic reaction.
With respect to tolerogenic immunization, Balb/c mice were injected intramuscular (i.m.) on days 0 and 14 with 100 ug each of OVA323-339 and pVAX1-OVA, MT1 and pVAX1-MT1, or MT2 and pVAX1-MT2. C57BL/6 mice were similarly injected with P100 and D100, or P66 and D66.
With respect to the intradermal test and histology, antigen-sensitized C57BL/6 mice were challenged intradermally (i.d.) with 10 ug of FSA (Greer Laboratories) on the nonlesional lateral thorax skin. PBS is used as a sham control and histamine is used as a positive control. The diameter of the skin reaction was measured within 30 min after challenge using a calibrated micrometer. Skin samples were collected within 30 min of antigen challenge, fixed in 4% paraformaldehyde, embedded in paraffin, and sectioned. […]

`CCCCC[C@@H](O)[C@H]1C(=O)O[C@H](C)[C@@H](O)/C=C/C=C/C=C/C=C/C=C(\C)[C@@H](O)C[C@H](O)C[C@H](O)C[C@H](O)C[C@H](O)C[C@H](O)C[C@@H]1O` [filipin]: in the assay on JAWS II cells, the “relative effectiveness in preventing CD40low phenotype” value is given as “more effective than MDC” and the “effect on CD40low phenotype” value is recorded as “could prevent”.

Regarding “ISQAVHAAHAEINEAGR (listed as Gallus gallus) [OVA323-339]”, the “order of affinity for MHC-II” value with MHC-II (I-Ad) was “OVA323-339>MT1>MT2=MT3”.

As for `N=C(N)NC(=O)c1nc(Cl)c(N)nc1N` [amiloride], the GFP expression entry in assay [1] (1 mM amiloride 1 h, after 3 days culture) is on record as “significantly higher level of GFP”. Further, the “uptake of Cy5-labeled pEGFP plasmids” value in assay [1] (pre-treated with 1 mM amiloride for 1 h, within 2 hrs) was “significantly taken up”. Besides, the “percentage of Cy5-plasmid+ cells in lymph nodes (LN)” value in assay [2] (amiloride 10 μM) is “increased”; in assay [2] (amiloride 100 μM) it was “peaked”; in [2] (amiloride 1 mM), “decreased”. For the same molecule, in assay [3] (pcD-S2 plasmid with amiloride treatment), the “expression of CD40, CD80 and CD86” value is “higher levels of expression of CD40, CD80 and CD86”. Moreover, the “expression of TNF and IFN-γ” value in assay [3] (vs same cells without amiloride treatment) is “higher levels of expression of TNF and IFN-γ”. In assay [4], the “percentage of S208-215 specific triple positive CD8 T effectors” value is listed as “significantly increased”. For the same molecule, the “effect on CD40 expression” value with JAWS II cells (amiloride (5 mM) for 10 min) is “no effect”. In addition, the “levels of antibody against HBsAg” value in the assay on HBsAg is given as “increased”.

On to `CN(C)c1cccc2c(S(=O)(=O)NCCCCCN)cccc12` [MDC, monodansylcadaverine], for which, in the assay on JAWS II cells, the “effect on CD40low phenotype” value is on record as “could prevent”.

TGF-β1: titrated rhTGF-β1 (PeproTech): in the assay with CD4+CD25− naive T cells, the “GFP (Foxp3) expression in CD25− T cells” value is “up-regulated”.

In the case of GPDWKVSKECKDPNN (Pulex irritans) [P100], in the assay with splenic CD4+ T cells, the T cell proliferation entry was “significantly more vigorous T cell proliferation”. Further, the “CD25− iTreg induced” value with flea allergic dermatitis is “induced more”.

B1: IL-10: rmIL10 (PeproTech) (protein, UniProt P18893 19-178, looked up)
Interleukin-10: SRGQYSREDNNCTHFPVGQSHMLLELRTAFSQVKTFFQTKDQLDNILLTDSLMQDFKGYLGCQALSEMIQFYLVEVMPQAEKHGPEIKEHLNSLGEKLKTLRMRLRRCHRFLPCENKSKAVEQVKSDFNKLQDQGVYKAMNEFDIFINCIEAYMMIKMKS
On to B1, for which the “GFP (Foxp3) expression in CD25− T cells” value in the assay on CD4+CD25− naive T cells was “neither alone influenced the expression of Foxp3”.
